These molecules were tested against T1, IRAK4 kinase protein (Homo sapiens, UniProt Q9NWZ3) (assay: IRAK4 kinase inhibition assay (Cisbio HTRF KinEASE-STK S1 kit)). Conditions: IRAK4 10 nM, ATP 200 μM, 37° C. 2 hours, read-out: IRAK4 inhibitory activity IC50.
T1 sequence (Q9NWZ3 1-460): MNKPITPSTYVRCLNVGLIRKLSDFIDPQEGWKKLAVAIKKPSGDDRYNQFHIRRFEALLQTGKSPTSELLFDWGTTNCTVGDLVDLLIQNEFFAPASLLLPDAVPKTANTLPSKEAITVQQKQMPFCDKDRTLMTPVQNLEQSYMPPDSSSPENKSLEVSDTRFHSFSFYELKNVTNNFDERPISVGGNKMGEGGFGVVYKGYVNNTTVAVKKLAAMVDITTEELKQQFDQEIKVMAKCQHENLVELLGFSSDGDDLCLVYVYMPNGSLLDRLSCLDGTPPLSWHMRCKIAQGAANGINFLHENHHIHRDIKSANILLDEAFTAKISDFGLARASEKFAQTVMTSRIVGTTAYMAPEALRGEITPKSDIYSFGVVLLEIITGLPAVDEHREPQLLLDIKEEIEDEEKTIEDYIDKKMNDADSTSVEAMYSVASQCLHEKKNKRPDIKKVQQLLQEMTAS
Type: biochemical
Protocol: Cisbio HTRF KinEASE-STK SI kit (62S1PEB) was used in this experiment. The experiment/detection buffer, STK Substrate 1-biotin, Streptavidin-XL665, and STK Antibody-Crypatete were all contained in the kit.
The compound/DMSO was added to a 384 plate (PerkinElmer 6008280) using Echo 665. Subsequently, 5 μL of IRAK4 kinase protein dissolved in an experimental buffer [1 volume of 5×kinase buffer+20 mM magnesium chloride (Sigma) solution+1 mM DTT (Alfa Aesar) solution+4 volumes of deionized water] at 2 folds reaction concentration was added (final concentration: 10 nM). The shallow well plate was sealed, shaken, and then centrifuged at 1000 rpm for 1 minute and incubated at room temperature for 5 minutes. 5 μL of a 1:1 mixture of STK Substrate 1-biotin (final concentration: 1 μM) and ATP (Sigma A1852) (final concentration: 200 μM) at 2 folds reaction concentration prepared with the experimental buffer was then added. The shallow well plate was sealed, shaken, then centrifuged at 1000 rpm for 1 minute, and incubated at 37° C. for 2 hours. Subsequently, 10 μL of a 1:1 mixed solution of Streptavidin-XL665 (final concentration: 62.5 nM) and STK-antibody-cryptate dissolved with the detection buffer was added. The shallow well plate was sealed, shaken, then centrifuged at 1000 rpm for 1 minute, and incubated at room temperature for 1 hour. Subsequently, numerical values were read at the wavelength of 620 nm/665 nm by a microplate reader. The data were analyzed by Prism 9.3 software, and the IC50 value of IRAK4 kinase inhibition was fitted by four-parameter Logistic equation. After detection, the compound of the present disclosure has a better IRAK4 kinase inhibitory activity.

Compound | IC50
O=C1Nc2ccc(S(=O)(=O)Nc3ccc(F)cc3)cc2/C1=C/c1cn(C2CCCCC2)nc1C(F)F [Compound 2] | 100 to 500 nM
O=C1Nc2ccc(S(=O)(=O)Nc3ccc(F)cc3)cc2/C1=C/Nc1cnn2cc(N3CCNCC3)ccc12 [Compound 6] | 500 to 1000 nM
Cc1c(/C=C2\C(=O)Nc3ccc(S(=O)(=O)Nc4ccc(F)cc4)cc32)[nH]c2cc(N3CCNCC3)ccc12 [Compound 8] | < 100 nM
O=C1Nc2ccc(S(=O)(=O)Nc3ccc(F)cc3)cc2/C1=C/Nc1cn(C2CCCCC2)nc1C(F)F [Compound 5] | < 100 nM
CCNS(=O)(=O)c1ccc2c(c1)/C(=C\c1cc3cc(N4CCNCC4)ccc3o1)C(=O)N2 [Compound 4] | 100 to 500 nM
O=C1Nc2ccc(S(=O)(=O)Nc3ccc(F)cc3)cc2/C1=C\c1cc2cc(N3CCNCC3)ccc2o1 [Compound 3] | < 100 nM
Cc1ccc(/C=C2/C(=O)Nc3ccc(S(=O)(=O)Nc4ccc(F)cc4)cc32)o1 [Compound 1] | > 1000 nM
O=C1Nc2ccc(S(=O)(=O)Nc3ccc(F)cc3)cc2/C1=C/c1cc2ccc(N3CCNCC3)cc2[nH]1 [Compound 7] | < 100 nM

Reference: patent US20260217704A1, “INDOLONE DERIVATIVE HAVING IRAK4 INHIBITORY ACTIVITY, AND PREPARATION METHOD THEREFOR AND USE THEREOF” (DOVETREE MEDICINES UNUS, INC., priority 2023, published 2026)
